Reference: ChEMBL document CHEMBL1156376, “Clathsterol, a novel anti-HIV-1 RT sulfated sterol from the sponge Clathria species” (J Nat Prod, 2001)
Calls of active or inactive are those of the source. The rule behind the calls is not given here.

Target: Human immunodeficiency virus type 1 reverse transcriptase (Human immunodeficiency virus 1) (UniProt Q72547)
Experiment: Inhibition of HIV1 reverse transcriptase at 10 uM

Activity: Active
SMILES: CCCC(=O)OC(C(CC)C(C)C)C(OC(=O)CCC)[C@@H](C)[C@H]1[C@@H](O)[C@H](OC(C)=O)[C@H]2[C@@H]3CCC4C[C@H](OS(=O)(=O)O)[C@@H](OS(=O)(=O)O)C[C@]4(C)[C@H]3CC[C@@]21C (stereo partly specified)
